Patent publication US7198946B2, “Screening for agents effective in decreasing abnormal macrophages associated with amyotrophic lateral sclerosis” (Pathologica, LLC, priority 2001, dated 2007)

System: CD14+ circulating monocytes from ALS patients
Assay: Effect of polyamine analogs on CD14+ monocytes in cultured PBMCs, anti-CD14 flow cytometry
Assay type: cell-based, human
Conditions: 1.0 μM SL-11047, 6 days incubation; 6 ALS patients vs 1 normal subject and 1 MS patient (FIG. 5)
Excerpt: Peripheral blood mononuclear cells (PBMCs) are isolated from heparin-treated whole blood by layering over Percoll, density 1.087, (Pharmacia, Piscataway, N.J.) and followed by centrifugation at 800×g. The cells that collect at the Percoll/plasma interface are harvested and washed with 0.01 M phosphate-buffered saline (PBS). Isolated cells are then suspended in RPMI 1640 culture medium, with 10% fetal bovine serum, at a concentration of about 1×10^6 cells/ml. Cells are allocated to polyvinyl culture tubes at 1 ml/tube. A polyamine analog such as SL-11047 is added to 3 tubes, to achieve final concentrations of 1.0, 0.1, and 0.01 micromolar. A fourth tube, for control, receives no (zero) drug. […]
On the […] of incubation, cells are removed from the incubator, washed with PBS and resuspended in PBS at 0.1 ml/tube. Detection of monocytes is detected by addition of fluorescein-conjugated anti-CD14 (DAKO Corp., Carpenteria, Calif.), for 20 minutes, at room temperature, protected from light. […]
An experiment as described above was performed with CD14+ circulating monocytes from 6 ALS patients, 1 multiple sclerosis (MS) patient and 1 normal (non-ALS) control subject. In this experiment, the cells from a patient were incubated with or without polyamine analog SL-11047 for 6 days and survival of CD14+ cells was determined. […]

## CCNCCCNC/C=C\CNCCCNCC.Cl.Cl.Cl.Cl [SL-11047, N,N′-bis(3-ethylaminopropyl)-cis-but-2-ene-1,4-diamine tetrahydrochloride]
  susceptibility to killing (percentage of CD14+ cells killed): substantially more susceptible to killing
